# Reference: publication PMC9808370 (Molecular cancer therapeutics, 2023)
# Read-outs that look alike come from different tables or passages of the source.
# Legend:
# HD-MB03 cells [1] = test system: HD-MB03 cells
# [2] = test system: G3MB and SHHMB tumor cells; assay: Single agent drug screen, statements over the panel of MB models; type: cell-based, human; conditions: most potent compounds over the MB models
# HD-MB03 cells [3] = assay: cells; type: cell-based, human
# [4] = test system: HD-MB03 intracranial xenograft; assay: Pre-clinical trial, survival of intracranial tumor bearing mice; type: in vivo, mouse
# [5] = test system: SJMBSHH-13-5634 intracranial PDX
# [6] = Toxicity measurement in tumor bearing mice; type: in vivo, mouse
# [7] = test system: MYC, CYCLIN E, p27KIP1 expression in HD-MB03 cells; assay: Immunoblotting; type: cell-based, human; conditions: HD-MB03, 72h, 5μM ribociclib, 0.3μM JQ1, 0.5μM paxalisib
# [8] = test system: MB002 intracranial xenograft; assay: Pre-clinical trial, survival of intracranial tumor bearing mice; type: in vivo, mouse; conditions: 10 mg/kg
# [9] = adult patients, once a day dosing; cited from earlier work
# HD-MB03 cells [10] = conditions: HD-MB03, 1h exposure
structure (smiles),measurement,setting,value
CCN1CCN(Cc2ccc(Nc3ncc(F)c(-c4cc(F)c5nc(C)n(C(C)C)c5c4)n3)nc2)CC1 [abemaciclib],EC50 fold improvement (IC50 fold change of drug partner),HD-MB03 cells [1],12.8 fold
CC(=O)c1c(C)c2cnc(Nc3ccc(N4CCNCC4)cn3)nc2n(C2CCCC2)c1=O [palbociclib],EC50 fold improvement (IC50 fold change of drug partner),HD-MB03 cells [1],30.5 fold
CCc1c2c(nc3ccc(O)cc13)-c1cc3c(c(=O)n1C2)COC(=O)[C@]3(O)CC [SN-38],IC50 (in words),[2],picomolar to low nanomolar range
CN(C)C(=O)c1cc2cnc(Nc3ccc(N4CCNCC4)cn3)nc2n1C1CCCC1 [ribociclib],IC20,"HD-MB03 cells [3]; Homo sapiens, HD-MB03",5000 nM
same,EC50 fold improvement (IC50 fold change of drug partner),"HD-MB03 cells [1]; Fig. 2D, 0.132μM JQ1 anchor, HD-MB03",7.8 fold
same,Median survival,[4]; 100 mg/kg,25 days
same,Median survival,[5]; 100 mg/kg,71.5 days
same,complete blood counts (in words),"[6]; MB002-bearing mice, ribociclib 100mg/kg, JQ1 50mg/kg daily",mild leukopenia
same,"MYC, CYCLIN E, p27KIP1 protein expression",[7],increased expression of MYC and CYCLIN E proteins
"CON(C)C(=O)N1N=C(c2cc(F)ccc2F)S[C@@]1(CCCN)c1ccccc1 [ARRY-520 /filanesib, filanesib]",IC50 (in words),[2],picomolar to low nanomolar range
CC1(C)OCCn2c1nc1c(N3CCOCC3)nc(-c3cnc(N)nc3)nc12 [paxalisib],Median survival,[8],33.5 days
same,maximum tolerated dose,[9],45 mg/day
same,Median survival,[4]; 10 mg/kg,27 days
same,Median survival,[5]; 10 mg/kg,46 days
same,body weight and body condition,"[6]; MB bearing mice, paxalisib 10mg/kg alone or with ribociclib 100mg/kg",severe weight loss and had poor body condition
Cc1nc(Nc2n[nH]c3c2CN(C(=O)N[C@H](CN(C)C)c2ccccc2)C3(C)C)c2sccc2n1 [PF-03758309],IC50 (in words),[2],picomolar to low nanomolar range
Cc1csc(-c2nnc(Nc3ccc(Oc4ncccc4-c4ccnc(N)n4)cc3)c3ccccc23)c1 [AMG-900],IC50 (in words),[2],picomolar to low nanomolar range
Cc1sc2c(c1C)C(c1ccc(Cl)cc1)=N[C@@H](CC(=O)OC(C)(C)C)c1nnc(C)n1-2 [JQ1],IC20,"HD-MB03 cells [3]; HD-MB03, anchor concentration",132 nM
same,IC50,HD-MB03 cells [10],> 2000 nM
